The target of test [1] is Dual specificity protein kinase CLK1 (Homo sapiens, UniProt P49759). Kind of test: Affinity On-target Cellular interaction (NanoBRET assay (HEK293T cells)) EUB0000321b CLK1. Further details: mode of action Inhibitor, recommended concentration 100 nM.
The target in test [2] is Dual specificity protein kinase CLK4 (Homo sapiens, UniProt Q9HAZ1). Kind of test: Affinity On-target Cellular interaction (NanoBRET assay (HEK293T cells)) EUB0000321b CLK4. Further details: mode of action Inhibitor, recommended concentration 100 nM.
Test [3] concerns the target Mitogen-activated protein kinase 1 (Homo sapiens, UniProt P28482). Kind of test: Affinity On-target Cellular interaction (Cellular assay (inhibition of RSK phosphorylation, A375SM cells)) EUB0000700a MAPK1.
Test [4] concerns the target Chromatin remodeling regulator CECR2 (Homo sapiens, UniProt Q9BXF3). Kind of test: Affinity On-target Cellular interaction (NanoBRET assay (dose-dependent displacement from histone H3.3 in HEK293T cells)) EUB0000201c CECR2. Type of test: cell-based. Further details: mode of action Inhibitor, recommended concentration 1 uM. In general terms: BRET reads energy transfer from a luciferase to a nearby fluorophore.

Test [5] has as its target Histone acetyltransferase KAT2A (Homo sapiens, UniProt Q92830). Kind of test: Affinity On-target Cellular interaction (Competing pull-down assay (full-length GCN5 from cell lysates using immobilized L-Moses)) EUB0000218c KAT2A. Further details: mode of action Inhibitor, recommended concentration 1 uM.
Test [6] deals with Histone acetyltransferase KAT2B (Homo sapiens, UniProt Q92831). Kind of test: Affinity On-target Cellular interaction (Competing pull-down assay (full-length PCAF from cell lysates using immobilized L-Moses)) EUB0000218c KAT2B. Further details: mode of action Inhibitor, recommended concentration 1 uM.
Chain of Histone acetyltransferase KAT2B (Q92831 whole entry): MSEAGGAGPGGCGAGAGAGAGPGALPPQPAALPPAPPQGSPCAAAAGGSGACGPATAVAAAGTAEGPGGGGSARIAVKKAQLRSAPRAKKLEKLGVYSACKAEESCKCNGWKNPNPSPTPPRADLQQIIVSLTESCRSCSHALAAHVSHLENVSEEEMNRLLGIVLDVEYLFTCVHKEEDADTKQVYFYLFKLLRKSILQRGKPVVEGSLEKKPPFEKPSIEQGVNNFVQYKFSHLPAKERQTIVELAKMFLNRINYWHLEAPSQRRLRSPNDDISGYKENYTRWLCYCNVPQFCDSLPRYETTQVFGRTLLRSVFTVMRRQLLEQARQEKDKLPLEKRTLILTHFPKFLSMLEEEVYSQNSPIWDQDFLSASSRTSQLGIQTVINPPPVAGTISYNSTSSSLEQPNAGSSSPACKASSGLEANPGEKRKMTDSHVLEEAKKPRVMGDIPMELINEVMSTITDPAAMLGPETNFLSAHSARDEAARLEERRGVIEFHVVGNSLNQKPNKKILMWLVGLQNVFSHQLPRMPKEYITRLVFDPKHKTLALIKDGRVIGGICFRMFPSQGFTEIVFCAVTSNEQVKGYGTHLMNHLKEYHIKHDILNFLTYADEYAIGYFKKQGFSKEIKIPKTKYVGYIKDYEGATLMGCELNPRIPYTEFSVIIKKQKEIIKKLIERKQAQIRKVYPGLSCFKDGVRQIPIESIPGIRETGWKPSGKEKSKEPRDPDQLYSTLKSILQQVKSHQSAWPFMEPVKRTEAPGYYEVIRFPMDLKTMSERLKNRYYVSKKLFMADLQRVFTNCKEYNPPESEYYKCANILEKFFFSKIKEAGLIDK
In test [7] the target is D(4) dopamine receptor (Homo sapiens, UniProt P21917). Kind of test: Affinity On-target Cellular interaction (Fluorometric Imaging Plate Reader (FLIPR) Assay (agonist activity at human D4.4 receptor in HEK293 cells coexpressing G-alpha-qo5)) EUB0000332a DRD4. Further details: mode of action Negative control for ABT-724, recommended concentration 100 nM. Format: cell-based.
Chain of D(4) dopamine receptor (P21917 whole entry): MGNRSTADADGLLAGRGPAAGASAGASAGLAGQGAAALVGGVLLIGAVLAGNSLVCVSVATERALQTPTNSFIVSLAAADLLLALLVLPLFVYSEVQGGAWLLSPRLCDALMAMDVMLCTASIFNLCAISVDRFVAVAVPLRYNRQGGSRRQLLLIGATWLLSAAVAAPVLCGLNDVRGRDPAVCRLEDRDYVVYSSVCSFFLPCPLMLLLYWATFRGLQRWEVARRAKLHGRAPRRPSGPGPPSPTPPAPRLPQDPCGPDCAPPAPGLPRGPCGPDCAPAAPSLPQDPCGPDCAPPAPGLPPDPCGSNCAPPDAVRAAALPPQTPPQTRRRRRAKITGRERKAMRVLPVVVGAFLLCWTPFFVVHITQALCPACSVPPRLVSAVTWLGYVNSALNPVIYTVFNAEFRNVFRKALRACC

Test [8] has as its target Nucleosome-remodeling factor subunit BPTF (Homo sapiens, UniProt Q12830). Kind of test: Affinity On-target Cellular interaction (NanoBRET assay (HEK293T cells)) EUB0000254b BPTF. Further details: mode of action Negative control for NVS-BPTF-1, recommended concentration 1 uM.
Test [9] is described as follows: Affinity On-target Cellular interaction (Cellular human mast cell degranulation assay) EUB0000714a SYK.
For test [10], the target named is Lutropin-choriogonadotropic hormone receptor (Homo sapiens, UniProt P22888). Kind of test: Affinity On-target Cellular interaction (Cell-based assay (LH Antagonism)) EUB0000340a LHCGR. Further details: mode of action Negative control for BAY-899, recommended concentration 1 uM.
Chain of Lutropin-choriogonadotropic hormone receptor (P22888 whole entry, the tested form may be a part): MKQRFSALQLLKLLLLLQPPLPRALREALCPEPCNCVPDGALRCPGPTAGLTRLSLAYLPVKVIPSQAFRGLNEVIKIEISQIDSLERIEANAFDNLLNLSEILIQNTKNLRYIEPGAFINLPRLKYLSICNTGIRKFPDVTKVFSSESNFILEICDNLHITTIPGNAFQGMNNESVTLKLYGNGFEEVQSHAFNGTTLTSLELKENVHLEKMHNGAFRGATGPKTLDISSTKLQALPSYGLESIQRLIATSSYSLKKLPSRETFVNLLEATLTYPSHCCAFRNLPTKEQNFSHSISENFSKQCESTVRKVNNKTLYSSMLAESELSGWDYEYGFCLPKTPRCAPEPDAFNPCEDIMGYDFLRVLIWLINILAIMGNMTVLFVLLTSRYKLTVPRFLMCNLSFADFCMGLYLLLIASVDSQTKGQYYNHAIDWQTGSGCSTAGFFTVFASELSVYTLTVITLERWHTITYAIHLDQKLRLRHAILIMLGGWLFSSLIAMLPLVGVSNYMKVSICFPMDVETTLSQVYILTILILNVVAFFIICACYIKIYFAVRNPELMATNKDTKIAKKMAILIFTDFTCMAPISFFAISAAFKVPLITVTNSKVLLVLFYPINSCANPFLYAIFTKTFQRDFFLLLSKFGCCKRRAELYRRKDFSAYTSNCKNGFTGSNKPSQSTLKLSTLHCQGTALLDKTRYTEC
Test [11] has as its target Bromodomain adjacent to zinc finger domain protein 2A (Homo sapiens, UniProt Q9UIF9). Kind of test: Affinity On-target Cellular interaction (Chemoproteomic competition binding assay (endogenous full-length BAZ2A from HuT78 extracts)) EUB0000267b BAZ2A. Further details: mode of action Negative control for GSK2801, recommended concentration 1 uM.
Test [12] addresses Bromodomain adjacent to zinc finger domain protein 2B (Homo sapiens, UniProt Q9UIF8). Kind of test: Affinity On-target Cellular interaction (Chemoproteomic competition binding assay (endogenous full-length BAZ2B captured on the GSK8573 affinity matrix from HuT-78 cell lysate) ) EUB0000267b BAZ2B. Further details: mode of action Negative control for GSK2801, recommended concentration 1 uM.

Test [13] deals with Serine/threonine-protein kinase PLK1 (Homo sapiens, UniProt P53350). Kind of test: Affinity On-target Cellular interaction (ELISA (PLK1 phosphorylation of Ser15-p53 in HeLa cells)) EUB0000698a PLK1. Further details: mode of action Inhibitor, recommended concentration 100 nM. Format: cell-based. On the technique in general: An ELISA detects its analyte on a solid surface through an enzyme-linked reagent.
Chain of Serine/threonine-protein kinase PLK1 (P53350 whole entry): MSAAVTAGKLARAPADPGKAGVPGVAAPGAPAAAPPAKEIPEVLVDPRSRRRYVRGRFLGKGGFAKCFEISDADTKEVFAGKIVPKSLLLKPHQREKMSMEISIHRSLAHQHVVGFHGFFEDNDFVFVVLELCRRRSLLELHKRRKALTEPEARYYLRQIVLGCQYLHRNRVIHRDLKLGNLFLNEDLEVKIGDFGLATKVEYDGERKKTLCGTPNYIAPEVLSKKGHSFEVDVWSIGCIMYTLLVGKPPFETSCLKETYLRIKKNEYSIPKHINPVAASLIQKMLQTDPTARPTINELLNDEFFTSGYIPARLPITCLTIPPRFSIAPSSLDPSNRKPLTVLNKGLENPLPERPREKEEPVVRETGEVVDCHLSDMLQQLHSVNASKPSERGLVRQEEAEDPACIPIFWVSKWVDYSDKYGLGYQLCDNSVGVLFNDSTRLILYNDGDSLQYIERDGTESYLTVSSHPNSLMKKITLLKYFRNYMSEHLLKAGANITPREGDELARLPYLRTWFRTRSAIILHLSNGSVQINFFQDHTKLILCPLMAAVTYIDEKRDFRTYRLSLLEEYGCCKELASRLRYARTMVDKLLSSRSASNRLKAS

For test [14], the target named is RAC-alpha serine/threonine-protein kinase (Homo sapiens, UniProt P31749). Kind of test: Affinity On-target Cellular interaction (NanoBRET assay (HEK293T cells)) EUB0000721a AKT1.
In test [15] the target is RAC-beta serine/threonine-protein kinase (Homo sapiens, UniProt P31751). Kind of test: Affinity On-target Cellular interaction (NanoBRET assay (HEK293T cells)) EUB0000721a AKT2.
Test [16] addresses RAC-gamma serine/threonine-protein kinase (Homo sapiens, UniProt Q9Y243). Kind of test: Affinity On-target Cellular interaction (NanoBRET assay (HEK293T cells)) EUB0000721a AKT3.
Test [17] addresses Mas-related G-protein coupled receptor member X2 (Homo sapiens, UniProt Q96LB1). Kind of test: Affinity On-target Cellular interaction (PRESTO-Tango concentration response assay (by the NIMH-PDSP)) EUB0000345a MRGPRX2. Further details: mode of action Negative control for (R)-ZINC 3573, recommended concentration 1 uM.
Test [18] deals with Activin receptor type-1B (Homo sapiens, UniProt P36896). Kind of test: Affinity On-target Cellular interaction (NanoBRET assay (HEK293T cells)) EUB0000710a ACVR1B.
In test [19] the target is TGF-beta receptor type-1 (Homo sapiens, UniProt P36897). Kind of test: Affinity On-target Cellular interaction (NanoBRET assay (HEK293T cells)) EUB0000710a TGFBR1.
Chain of TGF-beta receptor type-1 (P36897 whole entry): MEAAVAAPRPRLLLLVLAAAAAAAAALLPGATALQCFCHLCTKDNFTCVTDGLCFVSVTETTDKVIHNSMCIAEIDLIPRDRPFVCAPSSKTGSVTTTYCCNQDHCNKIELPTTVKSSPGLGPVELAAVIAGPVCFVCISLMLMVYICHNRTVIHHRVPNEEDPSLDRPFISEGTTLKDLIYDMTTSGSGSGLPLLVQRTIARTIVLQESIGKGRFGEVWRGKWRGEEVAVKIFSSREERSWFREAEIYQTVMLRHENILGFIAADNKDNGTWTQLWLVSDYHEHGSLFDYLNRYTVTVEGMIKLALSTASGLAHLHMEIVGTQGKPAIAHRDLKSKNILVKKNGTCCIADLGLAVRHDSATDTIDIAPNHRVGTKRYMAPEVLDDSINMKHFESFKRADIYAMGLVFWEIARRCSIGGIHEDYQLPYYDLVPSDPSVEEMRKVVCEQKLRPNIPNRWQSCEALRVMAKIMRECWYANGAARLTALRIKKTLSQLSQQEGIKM
Test [20] has as its target Transient receptor potential cation channel subfamily A member 1 (Homo sapiens, UniProt O75762). Kind of test: Affinity On-target Cellular interaction (Electrophysiological assay (inhibition of AITC (allylthiocyanate, 100 µmol/L)-evoked currents in HEK293F cells transiently overexpressing hTRPA1)) EUB0000308b TRPA1. Format: cell-based. Further details: mode of action Antagonist, recommended concentration 1 uM.

Test [21] concerns the target CREB-binding protein (Homo sapiens, UniProt Q92793). Kind of test: Affinity On-target Cellular interaction (NanoBRET assay (HEK293T cells)) EUB0000195c CREBBP. Further details: mode of action Inhibitor, recommended concentration 1 uM.

The structures appear in SMILES notation.

Chain of RAC-gamma serine/threonine-protein kinase (Q9Y243 whole entry): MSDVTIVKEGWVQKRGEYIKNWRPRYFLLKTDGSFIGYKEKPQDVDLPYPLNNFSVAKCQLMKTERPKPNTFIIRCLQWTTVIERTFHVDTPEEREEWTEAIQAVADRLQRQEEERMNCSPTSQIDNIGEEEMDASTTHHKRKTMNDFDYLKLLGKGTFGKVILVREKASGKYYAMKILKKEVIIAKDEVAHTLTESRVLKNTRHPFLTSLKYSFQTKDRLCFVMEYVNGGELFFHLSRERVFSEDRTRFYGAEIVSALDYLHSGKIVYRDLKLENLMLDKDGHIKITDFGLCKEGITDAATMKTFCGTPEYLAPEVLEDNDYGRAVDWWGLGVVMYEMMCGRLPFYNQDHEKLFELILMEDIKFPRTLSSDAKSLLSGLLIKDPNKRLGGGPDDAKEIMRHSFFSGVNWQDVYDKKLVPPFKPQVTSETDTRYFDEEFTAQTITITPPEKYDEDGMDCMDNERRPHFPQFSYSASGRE
Chain of Dual specificity protein kinase CLK1 (P49759 whole entry): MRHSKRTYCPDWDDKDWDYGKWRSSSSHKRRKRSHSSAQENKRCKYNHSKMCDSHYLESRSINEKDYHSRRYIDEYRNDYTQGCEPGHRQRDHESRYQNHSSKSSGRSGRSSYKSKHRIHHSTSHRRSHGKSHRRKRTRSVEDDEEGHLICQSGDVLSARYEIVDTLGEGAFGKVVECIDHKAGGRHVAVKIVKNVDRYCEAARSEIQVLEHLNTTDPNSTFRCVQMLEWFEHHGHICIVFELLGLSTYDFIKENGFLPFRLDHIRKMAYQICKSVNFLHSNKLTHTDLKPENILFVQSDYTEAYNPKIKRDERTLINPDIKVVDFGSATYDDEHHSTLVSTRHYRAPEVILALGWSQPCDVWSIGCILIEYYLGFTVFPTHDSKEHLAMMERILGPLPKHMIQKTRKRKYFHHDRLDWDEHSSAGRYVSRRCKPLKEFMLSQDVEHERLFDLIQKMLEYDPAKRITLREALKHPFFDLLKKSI
Chain of Mitogen-activated protein kinase 1 (P28482 whole entry): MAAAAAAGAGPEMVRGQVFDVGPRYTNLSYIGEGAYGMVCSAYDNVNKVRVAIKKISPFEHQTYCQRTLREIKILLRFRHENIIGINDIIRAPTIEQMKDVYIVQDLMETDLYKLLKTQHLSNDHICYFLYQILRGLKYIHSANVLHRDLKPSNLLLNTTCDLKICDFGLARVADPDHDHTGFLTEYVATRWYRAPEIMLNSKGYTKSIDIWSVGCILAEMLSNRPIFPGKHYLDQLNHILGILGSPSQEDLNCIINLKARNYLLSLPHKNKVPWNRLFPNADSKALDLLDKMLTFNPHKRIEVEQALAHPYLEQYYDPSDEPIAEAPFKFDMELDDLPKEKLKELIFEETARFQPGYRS
Chain of Mas-related G-protein coupled receptor member X2 (Q96LB1 whole entry): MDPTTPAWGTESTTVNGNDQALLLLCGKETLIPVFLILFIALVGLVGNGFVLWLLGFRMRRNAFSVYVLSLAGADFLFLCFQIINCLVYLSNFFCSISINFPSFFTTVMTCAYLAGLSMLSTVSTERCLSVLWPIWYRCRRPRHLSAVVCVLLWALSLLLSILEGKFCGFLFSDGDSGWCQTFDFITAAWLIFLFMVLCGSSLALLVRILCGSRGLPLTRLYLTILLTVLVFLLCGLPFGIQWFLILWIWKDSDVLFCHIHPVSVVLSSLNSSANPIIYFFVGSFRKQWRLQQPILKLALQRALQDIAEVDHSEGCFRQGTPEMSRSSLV

Usually IC50 stands for the concentration at which inhibition is half-maximal. Low readings indicate inhibition by little substance, high ones a need for much substance. For the molecule `CN1CCN(C(=O)C(C)(C)c2ccc(C(=O)Nc3cn4cc(-c5ccncc5)ccc4n3)cc2)CC1` [T3-CLK], the IC50 is 0.004 µM in test [1] and above 0.002 µM in test [2].
Turning to `C[C@H](NC(=O)Nc1cc2[nH]ncc2c(CO)n1)c1ccccn1` [ERKi-NC], the IC50 in [3] was above 10 µM.
`CCCS(=O)(=O)c1nc(NC2CC2)cc(-c2ccc3c(ccn3C3CC(C)(C)NC(C)(C)C3)c2)n1` gave an IC50 in test [4] of 0.255 µM.
`Cc1nnc2c3ccccc3c(N[C@@H](C)[C@H](c3ccccc3)N(C)C)nn12`: the IC50 amounted to 0.22 µM in [5] and 0.66 µM in [6].
One may read the EC50 as the concentration at which the effect is half-maximal. A lower EC50 goes with greater potency. In test [7], `CSc1cccnc1N1CCN(Cc2nc3ccccc3[nH]2)CC1` [A-769] showed an EC50 above 10 µM.
Consider `Cc1c(Nc2ccc(S(=O)(=O)N3CCN(C)CC3)cc2F)nc2ccc(Nc3cnn(C4CC4)c3)cn2c1=O`, for which the IC50 in test [8] was above 10 µM.
Molecule `Cc1cc(Nc2nccc(C)n2)cc(-c2cnc([C@@]3(O)CC[C@H](C(=O)O)C(C)(C)C3)s2)c1` [MRL-SYKi] displayed an IC50 in [9] of 0.038 µM.
In test [10], `O=C(Nc1ccc(Oc2ccc(F)cc2)cc1)N1CCc2ncccc2[C@H]1c1ccc(F)cc1` [BAY-897] showed an IC50 above 16 µM.
A word on the Kd: it is the free concentration of one partner at which half of the binding sites on the other are occupied at equilibrium, for simple one-to-one binding. Lower therefore signals a tighter complex. Regarding `CCCOc1ccn2c(C(C)=O)cc(-c3cccc(OC)c3)c2c1`, the Kd in test [11] and in test [12] was above 10 µM each time.
Consider `COc1cc2ncn(-c3cc(OCc4ccccc4C(F)(F)F)c(C(N)=O)s3)c2cc1OC` [GW843682X], for which the IC50 in test [13] came out at 0.14 µM.
For `C=CC(=O)Nc1ccc2[nH]c(=O)n(C3CCN(C(=O)c4ccc(-c5nc6cc[nH]c(=O)c6cc5-c5ccccc5)cc4)CC3)c2c1`, the results for the IC50 in test [14], in [15] and in [16] were 1.9 µM, 8.3 µM and 18 µM, respectively.
Molecule `CN(C)[C@H]1CCN(c2cc(-c3ccccc3)nc3ccnn23)C1` [(S)-ZINC-3573] showed a 50% effective concentration (EC50) in test [17] above 100 µM.
As to `Cc1cnc(-c2cc(Cl)ccc2F)cc1-n1c(=O)n(CC(N)=O)c2ccccc21` [Al11], the IC50 in test [18] and in test [19] was above 10 µM throughout.
For `Clc1cccc(-c2nnnn2Cc2cccnc2)c1Cl`, in [20], the IC50 came to 0.051 µM.
On to `CCC(=O)N1CCOc2c(cc(-c3ccc(OC)c(OC)c3)cc2OC[C@H]2CCCN(C)C2)C1`, for which the IC50 in test [21] is 0.6 µM.

Values taken from ChEMBL document CHEMBL5210121, “Affinity On-target Cellular Literature for EUbOPEN Chemogenomics Library wave 3” (2023).
